{
  "source": "patent EP4711366A1",
  "about": "“PYRIMIDO MACROHETEROCYCLIC COMPOUND AS WEE1-YES DUAL-TARGET INHIBITOR AND USE THEREOF” (Mindrank AI Ltd., priority 2023, dated 2024)",
  "key": {"[1]": {"target": "Wee1 kinase (Homo sapiens, UniProt P30291)", "sequence (P30291 whole entry)": "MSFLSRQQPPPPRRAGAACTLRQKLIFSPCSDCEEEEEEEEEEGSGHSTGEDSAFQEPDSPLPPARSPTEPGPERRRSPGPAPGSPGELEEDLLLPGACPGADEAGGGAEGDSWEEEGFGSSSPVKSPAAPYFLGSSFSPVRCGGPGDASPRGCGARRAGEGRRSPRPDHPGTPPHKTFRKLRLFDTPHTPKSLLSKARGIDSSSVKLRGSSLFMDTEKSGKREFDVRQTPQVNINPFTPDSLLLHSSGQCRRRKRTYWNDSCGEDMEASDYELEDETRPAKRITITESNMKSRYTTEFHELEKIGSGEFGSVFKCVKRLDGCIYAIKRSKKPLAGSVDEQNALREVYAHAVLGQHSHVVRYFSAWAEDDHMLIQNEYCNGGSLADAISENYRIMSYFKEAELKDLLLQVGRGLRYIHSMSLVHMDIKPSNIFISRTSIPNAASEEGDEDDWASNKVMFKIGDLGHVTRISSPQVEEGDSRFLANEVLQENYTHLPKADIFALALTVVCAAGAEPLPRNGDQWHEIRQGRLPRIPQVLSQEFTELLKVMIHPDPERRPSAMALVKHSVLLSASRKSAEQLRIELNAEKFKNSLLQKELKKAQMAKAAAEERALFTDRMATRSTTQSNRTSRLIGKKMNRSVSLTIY", "test": "WEE1 protein kinase inhibitory activity assay (ADP-GLO luminescence)", "assay_type": "biochemical", "conditions": "for IC50: Wee1 10 ng/well, ATP 10 µM, 3 h, 37 °C", "description": "The influence of the compound MRANK-106 of the present disclosure on the kinase activity of Weel was assessed using an in vitro kinase reaction system.\nTable 2-1. Information about reagents and consumables\n① 1× kinase buffer: A 5× kinase buffer was diluted with ddH2O to make a 1× kinase buffer. Table 2-3. The reagent components added to the 1× kinase buffer\n③ 5× enzyme working solution: The optimization of the enzyme concentration had been completed in previous work, and the concentration of the reagent used in the screening is shown in Table 2-4. A 5× enzyme working solution of the enzyme was formulated using the 1× kinase buffer.\n④ Compound formulation: A 10 mM mother liquor was formulated using DMSO, aliquoted, and then stored at -20 °C. Immediately before use, the mother liquor was thawed, diluted with DMSO to 1 mM, serially diluted 4-fold to 10 concentration points, and then 40-fold diluted with the 1× kinase buffer to give a 2.5× working solution. Table 2-4. The experimental conditions for the kinase activity assay\nAfter the above reagents were formulated and equilibrated to room temperature, 4 µL of the diluted solution of the compound to be tested and 2 µL of the formulated enzyme solution were added to reaction wells. After shaking and centrifugation, the plate was incubated at room temperature for 15 min, and 4 µL of the ATP solution was then added to start a kinase reaction. After 3 h of reaction at 37 °C, 10 µL of an ADP-GLO reagent was added. After thorough mixing, the mixture was left to react at room temperature for 40 min, and 20 µL of a detection reagent was then added. After 30 min of reaction at room temperature, the luminescence signals were detected using a SpectraMax L instrument. Two independent duplicate assays were performed. The inhibition rate of each well was calculated based on all activity wells and background signal wells, with an average calculated for duplicate wells. Meanwhile, the inhibition rate was plotted using the professional graphing and analysis software PRISM 9.0, and the IC50 was calculated.\nThe inhibition rates of the compounds to be tested against the kinase activity of Wee1 were calculated using the following formula: Inhibition rate% = (Lumvehicle−Lumcompound)/(Lumvehicle−Lumblank) × 100% [formula] • Lumcompound: the luminescence of the sample treatment groups • Lumvehicle: the luminescence of the solvent control group • Lumblank: the luminescence of the blank group"}, "[2]": {"test_system": "Human colon cancer LoVo cells", "test": "In vivo efficacy study against LoVo tumors (subcutaneous tumor-bearing model)", "parameters": "species or system BALB/c nude mice", "conditions": "for Relative tumor inhibition (%) Day 28 / Relative tumor volume Day 28: PO", "description": "(§1) Human colon cancer LoVo cells were subcultured and expanded in an F12K culture medium containing 10% FBS. BALB/c nude mice aged 6-8 weeks were taken and each subcutaneously injected with 2 × 10^6 cells to establish a tumor-bearing model. The tumor volume was monitored, and when the tumor volume reached about 150 mm^3, the animals were randomized into 5 groups according to body weight and tumor volume. The animals were given, by oral gavage, the vehicle or compounds to be tested (ZN-c3 and IE) once daily for a total of 28 days. During the period of administration, the tumor volume and the animal body weight were measured twice a week, and the animals' states were observed daily. At the endpoint, the animals were euthanized with carbon dioxide, and the subcutaneous tumors were isolated and weighed.\n(§2) The data calculation formulae are shown below: The tumor volume (TV) was calculated using the formula 1/2×axb^2, where a and b represent the length and width measurements of the tumor, respectively.\nThe tumor growth inhibition rate (%TGITV) was calculated using the formula (1 - TVT/TVC) × 100%, where TVC represents the average tumor volume of the negative control group, and TVT represents the average tumor volume of the treatment group.\n(§3) The relative tumor volume (RTV) was calculated using the formula Vt/V0, where V0 represents the tumor volume at the time of grouping, and Vt represents the tumor volume at each measurement."}, "[3]": {"test_system": "A427 human lung cancer cells", "test": "In vivo efficacy study against A427 tumors (subcutaneous tumor-bearing model)", "parameters": "species or system BALB/c nude mice", "conditions": "for Relative tumor inhibition rate (%) Day 28 / Relative tumor volume Day 28: PO", "description": "(§4) A427 human lung cancer cells were subcultured and expanded in an MEM culture medium containing 10% FBS. BALB/c nude mice aged 6-8 weeks were taken and each subcutaneously injected with 5 × 10^6 cells to establish a tumor-bearing model. The tumor volume was monitored, and when the tumor volume reached about 150 mm^3, the animals were randomized into 5 groups according to body weight and tumor volume. The animals were given, by oral gavage, the vehicle or compounds to be tested (ZN-c3 and IE) once daily for a total of 28 days. During the period of administration, the tumor volume and the animal body weight were measured twice a week, and the animals' states were observed daily. At the endpoint, the animals were euthanized with carbon dioxide, and the subcutaneous tumors were isolated and weighed.\nas §2\n(§5) The tumor growth inhibition rate (%TGITV) was calculated using the formula (1 - TVT/TVC) × 100%, where TVc represents the average tumor volume of the negative control group, and TVT represents the average tumor volume of the treatment group.\nas §3"}, "[4]": {"test_system": "SW620 human colon cancer cells", "test": "In vivo efficacy study against SW620 tumors (subcutaneous tumor-bearing model)", "parameters": "species or system BALB/c nude mice", "conditions": "for Relative tumor inhibition rate (%) Day 21 / Relative tumor volume Day 21: PO, QD×21", "description": "as §4, with “SW620 human colon” for “A427 human lung”, “SW620 human colon cancer cells” for “A427 human lung cancer cells”, “in an L-15 culture medium” for “in an MEM culture medium”, “injected with 1 × 10^6” for “injected with 5 × 10^6”, “(ZN-c3 and compound IE) once” for “(ZN-c3 and IE) once”, “total of 21 days. During” for “total of 28 days. During”\nas §2, §5, §3"}, "[5]": {"test_system": "Human ovarian cancer OVCAR-3 cells", "test": "In vivo efficacy study against OVCAR-3 tumors (subcutaneous tumor-bearing model)", "parameters": "species or system BALB/c nude mice", "conditions": "for Relative tumor inhibition (%) Day 28 / Relative tumor volume Day 28: PO", "description": "as §1, with “Human ovarian” for “Human colon”, “cancer OVCAR-3” for “cancer LoVo”, “an RPMI-1640” for “an F12K”, “containing 20% FBS and 0.01 mg/mL bovine insulin.” for “containing 10% FBS.”, “with 5” for “with 2”\nas §2, §5, §3"}},
  "data": [
    {"smiles": "Cc1cc(Nc2ncc3c(=O)n4n(c3n2)-c2cccc(n2)[C@](C)(O)CCC=CC4)ccc1OC1CCN(C)CC1", "note": "(stereo in doubt) [Compound IE, (R,Z)-12-hydroxy-12-methyl-2-((3-methyl-4-((1-methylpiperidin-4-yl)oxy)phenyl)amino)-7,10,11,12-tetrahydro-5H-13,17-(azeno)pyrimido[4',5':3,4]pyrazolo[1,2-a] [1,2]diazacyclotridecin-5-one]", "values": [
      {"measurement": "IC50", "setting": "[1]", "value": 7.8, "unit": "nM"},
      {"measurement": "inhibition of the Weel target (in words)", "setting": "[1]; summary statement on the assay results", "value": "strongly inhibited"},
      {"measurement": "Relative tumor inhibition (%) Day 28", "setting": "[2]; 20 mg/kg, QD × 28", "value": 60.90, "unit": "%"},
      {"measurement": "Relative tumor volume Day 28", "setting": "[2]; 20 mg/kg, QD × 28", "value": 2.28},
      {"measurement": "Relative tumor inhibition (%) Day 28", "setting": "[2]; 40 mg/kg, QD × 28", "value": 89.12, "unit": "%"},
      {"measurement": "Relative tumor volume Day 28", "setting": "[2]; 40 mg/kg, QD × 28", "value": 0.63},
      {"measurement": "Relative tumor inhibition (%) Day 28", "setting": "[2]; 80mg/kg, QD×28", "value": 97.12, "unit": "%"},
      {"measurement": "Relative tumor volume Day 28", "setting": "[2]; 80mg/kg, QD×28", "value": 0.17},
      {"measurement": "activity in inhibiting tumor growth in the LoVo tumor model compared with ZN-c3", "setting": "[2]; comparison in words", "value": "significantly better activity than ZN-c3"},
      {"measurement": "Relative tumor inhibition rate (%) Day 28", "setting": "[3]; 30mg/kg, QD×28", "value": 60.81, "unit": "%"},
      {"measurement": "Relative tumor volume Day 28", "setting": "[3]; 30mg/kg, QD×28", "value": 2.41},
      {"measurement": "Relative tumor inhibition rate (%) Day 28", "setting": "[3]; 80/60 mg/kg, QD × 28", "value": 99.75, "unit": "%"},
      {"measurement": "Relative tumor volume Day 28", "setting": "[3]; 80/60 mg/kg, QD × 28", "value": 0.02},
      {"measurement": "activity in inhibiting tumor growth in the A427 tumor model compared with ZN-c3", "setting": "[3]; comparison in words", "value": "higher activity than the reference molecule ZN-c3"},
      {"measurement": "Relative tumor inhibition rate (%) Day 21", "setting": "[4]; 30mg/kg", "value": 38.18, "unit": "%"},
      {"measurement": "Relative tumor volume Day 21", "setting": "[4]; 30mg/kg", "value": 7.31},
      {"measurement": "Relative tumor inhibition rate (%) Day 21", "setting": "[4]; 80mg/kg", "value": 78.38, "unit": "%"},
      {"measurement": "Relative tumor volume Day 21", "setting": "[4]; 80mg/kg", "value": 2.57},
      {"measurement": "activity in inhibiting tumor growth in the SW620 tumor model compared with ZN-c3", "setting": "[4]; comparison in words", "value": "higher activity than the reference molecule ZN-c3"},
      {"measurement": "Relative tumor inhibition (%) Day 28", "setting": "[5]; 20 mg/kg, QD × 28", "value": 40.51, "unit": "%"},
      {"measurement": "Relative tumor volume Day 28", "setting": "[5]; 20 mg/kg, QD × 28", "value": 3.16},
      {"measurement": "Relative tumor inhibition (%) Day 28", "setting": "[5]; 40 mg/kg, QD × 28", "value": 81.11, "unit": "%"},
      {"measurement": "Relative tumor volume Day 28", "setting": "[5]; 40 mg/kg, QD × 28", "value": 0.94},
      {"measurement": "Relative tumor inhibition (%) Day 28", "setting": "[5]; 80/60 mg/kg, QD × 28", "value": 92.69, "unit": "%"},
      {"measurement": "Relative tumor volume Day 28", "setting": "[5]; 80/60 mg/kg, QD × 28", "value": 0.38},
      {"measurement": "activity in inhibiting tumor growth in the OVCAR-3 tumor model compared with ZN-c3", "setting": "[5]; comparison in words", "value": "significantly better activity than ZN-c3"}
    ]},
    {"smiles": "C=CCn1c(=O)c2cnc(Nc3ccc(N4CCN(C)CC4)cc3)nc2n1-c1ccc2c(n1)C(O)(CC)CC2", "note": "(stereo not drawn) [ZN-c3, reference compound]", "values": [
      {"measurement": "IC50", "setting": "[1]", "value": 5.6, "unit": "nM"},
      {"measurement": "Relative tumor inhibition (%) Day 28", "setting": "[2]; 80mg/kg, QD×28", "value": 57.98, "unit": "%"},
      {"measurement": "Relative tumor volume Day 28", "setting": "[2]; 80mg/kg, QD×28", "value": 2.41},
      {"measurement": "Relative tumor inhibition rate (%) Day 28", "setting": "[3]; 30mg/kg, QD×28", "value": 16.17, "unit": "%"},
      {"measurement": "Relative tumor volume Day 28", "setting": "[3]; 30mg/kg, QD×28", "value": 5.03},
      {"measurement": "Relative tumor inhibition rate (%) Day 28", "setting": "[3]; 80mg/kg, QD×28", "value": 48.93, "unit": "%"},
      {"measurement": "Relative tumor volume Day 28", "setting": "[3]; 80mg/kg, QD×28", "value": 3.12},
      {"measurement": "Relative tumor inhibition rate (%) Day 21", "setting": "[4]; 30mg/kg", "value": 28.24, "unit": "%"},
      {"measurement": "Relative tumor volume Day 21", "setting": "[4]; 30mg/kg", "value": 8.57},
      {"measurement": "Relative tumor inhibition rate (%) Day 21", "setting": "[4]; 80mg/kg", "value": 36.78, "unit": "%"},
      {"measurement": "Relative tumor volume Day 21", "setting": "[4]; 80mg/kg", "value": 7.94},
      {"measurement": "Relative tumor inhibition (%) Day 28", "setting": "[5]; 100mg/kg, QD×28", "value": 61.10, "unit": "%"},
      {"measurement": "Relative tumor volume Day 28", "setting": "[5]; 100mg/kg, QD×28", "value": 2.01}
    ]}
  ]
}
